From patent US9662310B2, “Cyclopropanecarboxylic acid derivative” (DAIICHI SANKYO COMPANY, LIMITED, priority 2010, dated 2017)
Structures can show the parent of a compound that is named as a salt.

target: TAFIa (Homo sapiens (Human), UniProt Q96IY4); assay: Determination of TAFIa enzyme inhibitory activity (FAAK substrate degradation); format: biochemical; conditions: TAFI activated with human thrombin / rabbit lung thrombomodulin; substrate FAAK, absorbance at 330 nm; read-out: TAFIa IC50
Experimental: Determination of TAFIa Enzyme Inhibitory Activity
HEPES buffered saline (20 mM HEPES, 150 mM NaCl, pH 7.4; hereinafter, referred to as HBS) was used in the preparation of a reaction solution. To 12 μL of a 250 μg/mL TAFI solution, 30 μL of an HBS solution containing 4 U/mL human thrombin, 12 U/mL rabbit lung thrombomodulin, and 12 mM CaCl2 was added, and the mixture was gently stirred. Then, TAFI was activated at room temperature. Ten minutes later, thrombin was neutralized by the addition of 10 μL of 100 μM PPACK (thrombin inhibitor) to terminate the activation of TAFI. The formed TAFIa was stored in ice and diluted immediately before use in determination with 2050 μL of an HBS solution containing BSA (bovine serum albumin) adjusted to 0.1% in terms of the final concentration.
(2) Determination of TAFIa Inhibitory Activity
A test substance was dissolved in HBS to prepare a 10-fold dilution series of evaluation concentrations. 80 μL of the TAFIa solution and 10 μL of the test substance were added to each well of a 96-well plate and mixed by shaking for 10 minutes. 10 μL of furylacryloyl-alanyl-lysine (FAAK) adjusted to 5 mg/mL was added to each well, and the change in the absorbance of this mixed solution at 330 nm was read for 30 minutes to determine the degradation rate of the substrate.
(3) Calculation of Inhibitory Activity IC50
The degradation rate of the substrate in each well was applied to a standard curve prepared using the dilution series of the TAFIa solution to calculate TAFIa activity.

TAFIa, sequence (Q96IY4 115-423): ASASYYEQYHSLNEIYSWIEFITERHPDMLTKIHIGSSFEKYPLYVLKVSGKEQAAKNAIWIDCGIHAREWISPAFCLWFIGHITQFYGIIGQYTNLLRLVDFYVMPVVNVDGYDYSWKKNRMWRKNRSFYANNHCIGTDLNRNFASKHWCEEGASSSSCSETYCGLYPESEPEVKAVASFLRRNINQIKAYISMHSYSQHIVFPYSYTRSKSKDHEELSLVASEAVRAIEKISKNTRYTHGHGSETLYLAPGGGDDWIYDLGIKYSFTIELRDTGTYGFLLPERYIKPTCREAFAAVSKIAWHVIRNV

| Compound | IC50 [nM] |
| --- | --- |
| NCCC[C@H]1C[C@]1(C(=O)O)c1cn(-c2cccs2)cn1 (relative stereo) [Example 37, (1R*,2S*)-2-(3-Aminopropyl)-1-[1-(2-thienyl)-1H-imidazol-4-yl]cyclopropanecarboxylic acid dihydrochloride] | 100 |
| NCCC[C@H]1C[C@]1(C(=O)O)c1cn(/C=C/c2ccccc2)cn1 (relative stereo) [Example 14, (1R*,2S*)-2-(3-Aminopropyl)-1-{1-[(E)-2-phenylvinyl]-1H-imidazol-4-yl}cyclopropanecarboxylic acid] | 99 |
| CC(CN)C[C@H]1C[C@]1(C(=O)O)c1cn(-c2ccc(S(C)(=O)=O)cc2)cn1 (relative stereo) [Example 34, (1R*,2S*)-2-(3-Amino-2-methylpropyl)-1-{1-[4-(methylsulfonyl)phenyl]-1H-imidazol-4-yl}cyclopropanecarboxylic acid] | 930 |
| NCCC[C@H]1C[C@]1(C(=O)O)c1cn(-c2cccnc2)cn1 (relative stereo) [Example 24, (1R*,2S*)-2-(3-Aminopropyl)-1-(1-pyridin-3-yl-1H-imidazol-4-yl)cyclopropanecarboxylic acid] | 98 |
| CCc1ccc(-n2cnc([C@@]3(C(=O)O)C[C@@H]3CCCN)c2)cc1 (relative stereo) [Example 11, (1R*,2S*)-2-(3-Aminopropyl)-1-[1-(4-ethylphenyl)-1H-imidazol-4-yl]cyclopropanecarboxylic acid] | 31 |
| NCCC[C@H]1C[C@]1(C(=O)O)c1cn(-c2cccc3ccccc23)cn1 (relative stereo) [Example 47, (1R*,2S*)-2-(3-Aminopropyl)-1-[1-(1-naphthyl)-1H-imidazol-4-yl]cyclopropanecarboxylic acid] | 54 |
| CC(CN)C[C@H]1C[C@]1(C(=O)O)c1cn(-c2ccccc2)cn1 (relative stereo) [Example 32, (1R*,2S*)-2-(3-Amino-2-methylpropyl)-1-(1-phenyl-1H-imidazol-4-yl)cyclopropanecarboxylic acid] | 35 |
| NCCC[C@H]1C[C@]1(C(=O)O)c1cn(-c2nccs2)cn1 (relative stereo) [Example 38, (1R*,2S*)-2-(3-Aminopropyl)-1-[1-(1,3-thiazol-2-yl)-1H-imidazol-4-yl]cyclopropanecarboxylic acid] | 58 |
| NCCC[C@H]1C[C@]1(C(=O)O)c1cn(-c2ccc3ccccc3n2)cn1 (relative stereo) [Example 42, (1R*,2S*)-2-(3-Aminopropyl)-1-(1-quinolin-2-yl-1H-imidazol-4-yl)cyclopropanecarboxylic acid] | 58 |
| C[C@@H](CN)C[C@H]1C[C@]1(C(=O)O)c1cn(-c2ccccn2)cn1 [Example 54, (1R,2S)-2-[(2R)-3-Amino-2-methylpropyl]-1-(1-pyridin-2-yl-1H-imidazol-4-yl]cyclopropanecarboxylic acid] | 11 |
| NCCC[C@H]1C[C@]1(C(=O)O)c1cn(-c2ccccc2Cl)cn1 (relative stereo) [Example 20, (1R*,2S*)-2-(3-Aminopropyl)-1-[1-(2-chlorophenyl)-1H-imidazol-4-yl]cyclopropanecarboxylic acid hydrochloride] | 140 |
| C[C@@H](CN)C[C@H]1C[C@]1(C(=O)O)c1cn(-c2ccccc2)cn1 [Example 50, (1R,2S)-2-[(2R)-3-Amino-2-methylpropyl]-1-(1-phenyl-1H-imidazol-4-yl)cyclopropanecarboxylic acid] | 14 |
| CC[C@@H](CN)C[C@H]1C[C@]1(C(=O)O)c1cn(-c2ccccn2)cn1 [Example 60, (1R,2S)-2-[(2R)-2-(Aminomethyl)butyl]-1-(1-pyridin-2-yl-1H-imidazol-4-yl)cyclopropanecarboxylic acid] | 8.3 |
| NCCC[C@H]1C[C@]1(C(=O)O)c1cn(C2CCCCC2)cn1 (relative stereo) [Example 4, (1R*,2S*)-2-(3-Aminopropyl)-1-(1-cyclohexyl-1H-imidazol-4-yl)cyclopropanecarboxylic acid] | 29 |
| NCCC[C@H]1C[C@]1(C(=O)O)c1cn(-c2ccc(F)cn2)cn1 (relative stereo) [Example 41, (1R*,2S*)-2-(3-Aminopropyl)-1-[1-(5-fluoropyridin-2-yl)-1H-imidazol-4-yl]cyclopropanecarboxylic acid] | 19 |
| Cc1ccc(-n2cnc([C@@]3(C(=O)O)C[C@@H]3C[C@@H](C)CN)c2)nc1 [Example 58, (1R,2S)-2-[(2R)-3-Amino-2-methylpropyl]-1-[1-(5-methylpyridin-2-yl)-1H-imidazol-4-yl]cyclopropanecarboxylic acid] | 8.7 |
| CCCn1cnc([C@@]2(C(=O)O)C[C@@H]2CCCN)c1 (relative stereo) [Example 3, (1R*,2S*)-2-(3-Aminopropyl)-1-(1-propyl-1H-imidazol-4-yl)cyclopropanecarboxylic acid] | 97 |
| NCCC[C@H]1C[C@]1(C(=O)O)c1cn(-c2ccc(Cl)cc2)cn1 (relative stereo) [Example 18, (1R*,2S*)-2-(3-Aminopropyl)-1-[1-(4-chlorophenyl)-1H-imidazol-4-yl]cyclopropanecarboxylic acid] | 25 |
| Cc1ccc(-n2cnc([C@@]3(C(=O)O)C[C@@H]3CC(C)CN)c2)cc1 (relative stereo) [Example 33, (1R*,2S*)-2-(3-Amino-2-methylpropyl)-1-[1-(4-methylphenyl)-1H-imidazol-4-yl]cyclopropanecarboxylic acid] | 39 |
| Cc1ccnc(-n2cnc([C@@]3(C(=O)O)C[C@@H]3CCCN)c2)c1 (relative stereo) [Example 64, (1R*,2S*)-2-(3-Aminopropyl)-1-[1-(4-methylpyridin-2-yl)-1H-imidazol-4-yl]cyclopropanecarboxylic acid] | 19 |
| NCCC[C@H]1C[C@]1(C(=O)O)c1cn(-c2ccc(Cl)cn2)cn1 (relative stereo) [Example 45, (1R*,2S*)-2-(3-Aminopropyl)-1-[1-(5-chloropyridin-2-yl)-1H-imidazol-4-yl]cyclopropanecarboxylic acid] | 63 |
| NCCC[C@H]1C[C@]1(C(=O)O)c1cn(-c2ccncc2)cn1 (relative stereo) [Example 23, (1R*,2S*)-2-(3-Aminopropyl)-1-(1-pyridin-4-yl-1H-imidazol-4-yl)cyclopropanecarboxylic acid hydrochloride] | 170 |
| NCCC[C@H]1C[C@]1(C(=O)O)c1cn(-c2ccc(F)c(F)c2)cn1 (relative stereo) [Example 17, (1R*,2S*)-2-(3-Aminopropyl)-1-[1-(3,4-difluorophenyl)-1H-imidazol-4-yl]cyclopropanecarboxylic acid] | 61 |
| NCCC[C@H]1C[C@]1(C(=O)O)c1cn(-c2ccc(C(F)(F)F)cc2)cn1 (relative stereo) [Example 13, (1R*,2S*)-2-(3-Aminopropyl)-1-{1-[4-(trifluoromethyl)phenyl]-1H-imidazol-4-yl}cyclopropanecarboxylic acid] | 140 |
| NCCC[C@@H]1C[C@@]1(C(=O)O)c1cn(-c2ccccc2)cn1 [Example 29, (1S,2R)-2-(3-Aminopropyl)-1-(1-phenyl-1H-imidazol-4-yl)cyclopropanecarboxylic acid] | > 10000 |
| C[C@H](CN)C[C@H]1C[C@]1(C(=O)O)c1cn(-c2ccccc2)cn1 [Example 51, (1R,2S)-2-[(2S)-3-Amino-2-methylpropyl]-1-(1-phenyl-1H-imidazol-4-yl)cyclopropanecarboxylic acid] | 35 |
| Cc1ccc(-n2cnc([C@@]3(C(=O)O)C[C@@H]3CCCN)c2)cc1 (relative stereo) [Example 7, (1R*,2S*)-2-(3-Aminopropyl)-1-[1-(4-methylphenyl)-1H-imidazol-4-yl]cyclopropanecarboxylic acid] | 16 |
| NCCC[C@H]1C[C@]1(C(=O)O)c1cn(-c2ccccn2)cn1 (relative stereo) [Example 25, (1R*,2S*)-2-(3-Aminopropyl)-1-(1-pyridin-2-yl-1H-imidazol-4-yl)cyclopropanecarboxylic acid] | 29 |

same assay, conditions: TAFIa IC50

| Compound | IC50 [nM] |
| --- | --- |
| CC(C)(C)CCn1cnc(C2(C(=O)O)CC2CCCN)c1 (single isomer, unassigned) [Example 2, (1R*,2R*)-2-(3-Aminopropyl)-1-[1-(3,3-dimethylbutyl)-1H-imidazol-4-yl]cyclopropanecarboxylic acid] | 420 |

same assay, conditions: read-out: TAFIa IC50

| Compound | IC50 [nM] |
| --- | --- |
| CCC[C@@H](CN)C[C@@H]1C[C@@]1(C(=O)O)c1cn(-c2ccccn2)cn1 [Example 67, (1S,2R)-2-[(2R)-2-(Aminomethyl)pentyl]-1-(1-pyridin-2-yl-1H-imidazol-4-yl)cyclopropanecarboxylic acid] | > 100 |
| CCC[C@@H](CN)C[C@H]1C[C@]1(C(=O)O)c1cn(-c2ccccn2)cn1 [Example 66, (1R,2S)-2-[(2R)-2-(Aminomethyl)pentyl]-1-(1-pyridin-2-yl-1H-imidazol-4-yl)cyclopropanecarboxylic acid] | 41 |
| CC[C@H](CN)C[C@H]1C[C@]1(C(=O)O)c1cn(-c2ccccc2)cn1 [Example 63, (1R,2S)-2-[(25)-2-(Aminomethyl)butyl]-1-(1-phenyl-1H-imidazol-4-yl)cyclopropanecarboxylic acid] | 12 |
